This note sets out measurements from patent publication US9708334B2, “Substituted 2,4,5,6-tetrahydropyrrolo[3,4-c]pyrazole and 4,5,6,7-tetrahydro-2H-pyrazolo[4,3-c]pyridine compounds as GlyT1 inhibitors” (DART NEUROSCIENCE (CAYMAN) LTD., priority 2014, dated 2017).

Each structure is given as a SMILES string. Where only a bound is given, the exact number is not on record here.

The experiment addresses T1, GlyT1 (Homo sapiens, UniProt P48067).
T1 construct: expressed in transfected cells
T1 sequence (P48067 1-706): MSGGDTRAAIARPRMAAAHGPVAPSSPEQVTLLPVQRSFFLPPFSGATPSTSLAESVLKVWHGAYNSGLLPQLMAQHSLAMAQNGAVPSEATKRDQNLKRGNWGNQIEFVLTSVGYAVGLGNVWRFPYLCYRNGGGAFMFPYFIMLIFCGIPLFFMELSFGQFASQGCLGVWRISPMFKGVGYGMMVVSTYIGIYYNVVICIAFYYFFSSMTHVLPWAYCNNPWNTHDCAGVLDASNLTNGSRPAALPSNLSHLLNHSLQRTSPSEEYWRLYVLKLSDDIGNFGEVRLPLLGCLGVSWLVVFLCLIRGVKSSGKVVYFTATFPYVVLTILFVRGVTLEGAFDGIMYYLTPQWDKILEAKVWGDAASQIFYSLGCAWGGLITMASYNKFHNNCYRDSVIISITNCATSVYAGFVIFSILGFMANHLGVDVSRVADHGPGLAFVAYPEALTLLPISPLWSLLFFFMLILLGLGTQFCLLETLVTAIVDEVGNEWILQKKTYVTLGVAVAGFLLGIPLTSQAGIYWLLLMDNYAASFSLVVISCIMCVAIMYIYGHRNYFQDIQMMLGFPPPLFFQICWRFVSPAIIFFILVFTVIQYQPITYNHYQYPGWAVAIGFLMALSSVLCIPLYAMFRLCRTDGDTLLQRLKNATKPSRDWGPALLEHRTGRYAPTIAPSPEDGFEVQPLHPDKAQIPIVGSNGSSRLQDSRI
Put plainly: Glycine Transporter 1 (GlyT1) uptake assay, scintillation proximity assay of [14C]-glycine uptake. It is filed as cell-based. The following applies: SPA, four parameter logistic fit, read-out: GlyT1 (pIC50) (converted). The gist of the method:
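[14C]-glycine uptake read by scintillation proximity on a plate counter. IC50 from four-parameter logistic fit of dose-response data.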
For orientation: Scintillation proximity formats need no separation of bound from free tracer.
As for `CS(=O)(=O)c1ccc(OCC(F)(F)F)c(C(=O)N2Cc3cn(-c4ccccc4)nc3C2)c1` [Example 102, 5-[5-Methanesulfonyl-2-(2 2 2-trifluoroethoxy)benzoyl]-2-phenyl-2H 4H 5H 6H-pyrrolo[3,4-c]pyrazole], the IC50 is < 100 nM.

For the molecule `CS(=O)(=O)c1ccc(OCC(F)(F)F)c(C(=O)N2Cc3cn(-c4ccc(F)cc4)nc3C2)c1` [Example 103, 2-(4-Fluorophenyl)-5-[5-methanesulfonyl-2-(2 2 2-trifluoroethoxy)benzoyl]-2H 4H 5H 6H-pyrrolo[3,4-c]pyrazole], the IC50 is < 100 nM.

Turning to `CS(=O)(=O)c1ccc(OCC(F)(F)F)c(C(=O)N2Cc3cn(-c4ccccc4F)nc3C2)c1` [Example 104, 2-(2-Fluorophenyl)-5-[5-methanesulfonyl-2-(2 2 2-trifluoroethoxy)benzoyl]-2H 4H 5H 6H-pyrrolo[3,4-c]pyrazole], the IC50 was < 100 nM.

As for `Cc1cccc(-n2cc3c(n2)CN(C(=O)c2cc(S(C)(=O)=O)ccc2OCC(F)(F)F)C3)c1` [Example 105, 5-[5-Methanesulfonyl-2-(2 2 2-trifluoroethoxy)benzoyl]-2-(3-methylphenyl)-2H 4H 5H 6H-pyrrolo[3,4-c]pyrazole], the IC50 is < 100 nM.

As to `Cc1cccc(-n2cc3c(n2)CN(C(=O)c2cc(S(C)(=O)=O)ccc2OCC(F)(F)F)C3)c1F` [Example 106, 2-(2-Fluoro-3-methylphenyl)-5-[5-methanesulfonyl-2-(2 2 2-trifluoroethoxy)benzoyl]-2H 4H 5H 6H-pyrrolo[3,4-c]pyrazole], the IC50 is < 100 nM.

Take `CS(=O)(=O)c1ccc(-c2cccc(F)c2)c(C(=O)N2Cc3cn(-c4ccc(F)cn4)nc3C2)c1` [Example 107, 5-Fluoro-2-{5-[2-(3-fluorophenyl)-5-methanesulfonylbenzoyl]-2H 4H 5H 6H-pyrrolo[3,4-c]pyrazol-2-yl}pyridine]: the IC50 is < 100 nM.

Turning to `CS(=O)(=O)c1ccc(-c2cccc(F)c2)c(C(=O)N2Cc3cn(-c4cncc(F)c4)nc3C2)c1` [Example 108, 3-Fluoro-5-{5-[2-(3-fluorophenyl)-5-methanesulfonylbenzoyl]-2H 4H 5H 6H-pyrrolo[3,4-c]pyrazol-2-yl}pyridine], the IC50 is < 100 nM.

`Cc1cc(-n2cc3c(n2)CN(C(=O)c2cc(S(C)(=O)=O)ccc2-c2cccc(F)c2)C3)ccn1` [Example 109, 4-{5-[2-(3-Fluorophenyl)-5-methanesulfonylbenzoyl]-2H 4H 5H 6H-pyrrolo[3,4-c]pyrazol-2-yl}-2-methylpyridine]: the IC50 is < 100 nM.

Take `Cc1cccc(-n2cc3c(n2)CN(C(=O)c2cc(S(C)(=O)=O)ccc2N2CCC(F)(F)CC2)C3)c1` [Example 110, 4 4-Difluoro-1-{4-methanesulfonyl-2-[2-(3-methylphenyl)-2H 4H 5H 6H-pyrrolo[3,4-c]pyrazole-5-carbonyl]phenyl}piperidine]: the IC50 was < 100 nM.

`CCS(=O)(=O)c1ccc(N2CCC(F)(F)CC2)c(C(=O)N2Cc3cn(-c4ccnc(C)c4)nc3C2)c1` [Example 111, 4-{5-[2-(4 4-Difluoropiperidin-1-yl)-5-(ethanesulfonyl)benzoyl]-2H 4H 5H 6H-pyrrolo[3,4-c]pyrazol-2-yl}-2-methylpyridine]: the IC50 is < 100 nM.

In the case of `CCS(=O)(=O)c1ccc(N2CCC(F)(F)CC2)c(C(=O)N2Cc3cn(-c4cncc(F)c4)nc3C2)c1` [Example 112], the IC50 is < 100 nM.

As to `CCS(=O)(=O)c1ccc(O[C@@H](C)C(F)(F)F)c(C(=O)N2Cc3cn(-c4ccnc(C)c4)nc3C2)c1` [Example 113, 4-{5-[5-(Ethanesulfonyl)-2-{[(2S)-1 1 1-trifluoropropan-2-yl]oxy}benzoyl]-2H 4H 5H 6H-pyrrolo[3,4-c]pyrazol-2-yl}-2-methylpyridine], the IC50 is < 100 nM.

Turning to `CCS(=O)(=O)c1ccc(O[C@@H](C)C(F)(F)F)c(C(=O)N2Cc3cn(-c4cncc(F)c4)nc3C2)c1` [Example 114, 3-{5-[5-(Ethanesulfonyl)-2-{[(2S)-1 1 1-trifluoropropan-2-yl]oxy}benzoyl]-2H 4H 5H 6H-pyrrolo[3,4-c]pyrazol-2-yl}-5-fluoropyridine], the IC50 was < 100 nM.

As to `CS(=O)(=O)c1ccc(N2CCCCC2)c(C(=O)N2Cc3cn(-c4ccc(F)cn4)nc3C2)c1` [Example 115, 5-Fluoro-2-{5-[5-methanesulfonyl-2-(piperidin-1-yl)benzoyl]-2H 4H 5H 6H-pyrrolo[3,4-c]pyrazol-2-yl}pyridine], the IC50 was < 100 nM.

Take `CS(=O)(=O)c1ccc(N2CCCCC2)c(C(=O)N2Cc3cn(-c4cncc(F)c4)nc3C2)c1` [Example 116, 3-Fluoro-5-{5-[5-methanesulfonyl-2-(piperidin-1-yl)benzoyl]-2H 4H 5H 6H-pyrrolo[3,4-c]pyrazol-2-yl}pyridine]: the IC50 is < 100 nM.

`Cc1cc(-n2cc3c(n2)CN(C(=O)c2cc(S(C)(=O)=O)ccc2N2CCCCC2)C3)ccn1` [Example 117, 4-{5-[5-Methanesulfonyl-2-(piperidin-1-yl)benzoyl]-2H 4H 5H 6H-pyrrolo[3,4-c]pyrazol-2-yl}-2-methylpyridine]: the IC50 was < 100 nM.

Consider `CS(=O)(=O)c1ccc(OCC2CC2)c(C(=O)N2Cc3cn(-c4ccccc4)nc3C2)c1` [Example 118, 5-[2-(Cyclopropylmethoxy)-5-methanesulfonylbenzoyl]-2-phenyl-2H 4H 5H 6H-pyrrolo[3,4-c]pyrazole], for which the IC50 was 100 to 1000 nM.

In the case of `CS(=O)(=O)c1ccc(OCC2CC2)c(C(=O)N2Cc3cn(-c4ccccc4F)nc3C2)c1` [Example 119, 5-[2-(Cyclopropylmethoxy)-5-methanesulfonylbenzoyl]-2-(2-fluorophenyl)-2H 4H 5H 6H-pyrrolo[3,4-c]pyrazole], the IC50 was < 100 nM.

Turning to `CS(=O)(=O)c1ccc(N2CCC(F)(F)CC2)c(C(=O)N2Cc3cn(-c4ccc(F)cn4)nc3C2)c1` [Example 120, 2-{5-[2-(4 4-Difluoropiperidin-1-yl)-5-methanesulfonylbenzoyl]-2H 4H 5H 6H-pyrrolo[3,4-c]pyrazol-2-yl}-5-fluoropyridine], the IC50 was < 100 nM.

In the case of `C[C@H](Oc1ccc(S(C)(=O)=O)cc1C(=O)N1Cc2cn(-c3cc(F)ccc3F)nc2C1)C(F)(F)F` [Example 121, 2-(2 5-Difluorophenyl)-5-(5-methanesulfonyl-2-{[(2S)-1 1 1-trifluoropropan-2-yl]oxy}benzoyl)-2H 4H 5H 6H-pyrrolo[3,4-c]pyrazole], the IC50 was < 100 nM.

In the case of `Cc1ccc(F)c(-n2cc3c(n2)CN(C(=O)c2cc(S(C)(=O)=O)ccc2O[C@@H](C)C(F)(F)F)C3)c1` [Example 122, 2-(2-Fluoro-5-methylphenyl)-5-(5-methanesulfonyl-2-{[(2S)-1 1 1-trifluoropropan-2-yl]oxy}benzoyl)-2H 4H 5H 6H-pyrrolo[3,4-c]pyrazole], the IC50 was < 100 nM.

Turning to `CS(=O)(=O)c1ccc(N2CCC(F)(F)CC2)c(C(=O)N2Cc3cn(-c4cc(F)ccc4F)nc3C2)c1` [Example 123, 1-{2-[2-(2 5-Difluorophenyl)-2H 4H 5H 6H-pyrrolo[3,4-c]pyrazole-5-carbonyl]-4-methanesulfonylphenyl}-4 4-difluoropiperidine], the IC50 is < 100 nM.

With `Cc1ccc(F)c(-n2cc3c(n2)CN(C(=O)c2cc(S(C)(=O)=O)ccc2N2CCC(F)(F)CC2)C3)c1` [Example 124, 4 4-Difluoro-1-{2-[2-(2-fluoro-5-methylphenyl)-2H 4H 5H 6H-pyrrolo[3,4-c]pyrazole-5-carbonyl]-4-methanesulfonylphenyl}piperidine], the IC50 was < 100 nM.

For the molecule `CCS(=O)(=O)c1ccc(O[C@@H](C)C(F)(F)F)c(C(=O)N2Cc3cn(-c4cc(F)ccc4F)nc3C2)c1` [Example 125, 2-(2 5-Difluorophenyl)-5-[5-(ethanesulfonyl)-2-{[(2S)-1 1 1-trifluoropropan-2-yl]oxy}benzoyl]-2H 4H 5H 6H-pyrrolo[3,4-c]pyrazole], the IC50 is < 100 nM.

In the case of `CCS(=O)(=O)c1ccc(O[C@@H](C)C(F)(F)F)c(C(=O)N2Cc3cn(-c4cc(C)ccc4F)nc3C2)c1` [Example 126, 5-[5-(Ethanesulfonyl)-2-{[(2S)-1 1 1-trifluoropropan-2-yl]oxy}benzoyl]-2-(2-fluoro-5-methylphenyl)-2H 4H 5H 6H-pyrrolo[3,4-c]pyrazole], the IC50 is < 100 nM.

With `CCS(=O)(=O)c1ccc(N2CCC(F)(F)CC2)c(C(=O)N2Cc3cn(-c4cc(F)ccc4F)nc3C2)c1` [Example 127, 1-{2-[2-(2 5-Difluorophenyl)-2H 4H 5H 6H-pyrrolo[3,4-c]pyrazole-5-carbonyl]-4-(ethanesulfonyl)phenyl}-4 4-difluoropiperidine], the IC50 is < 100 nM.

Turning to `CCS(=O)(=O)c1ccc(N2CCC(F)(F)CC2)c(C(=O)N2Cc3cn(-c4cc(C)ccc4F)nc3C2)c1` [Example 128, 1-[4-(Ethanesulfonyl)-2-[2-(2-fluoro-5-methylphenyl)-2H 4H 5H 6H-pyrrolo[3,4-c]pyrazole-5-carbonyl]phenyl]-4 4-difluoropiperidine], the IC50 is < 100 nM.
